Key:
[1] = test system: Streptokinase (Homo sapiens); assay: Chromogenic substrate assay, Ki determination, Streptokinase; assay type: biochemical
Method: (§1) The inhibitor (I) constants (Ki) were determined for the inhibition of a series of human enzymes (FXa, thrombin, trypsin, plasmin, protein Ca, streptokinase, tPA, and urokinase) by each compound. Chromogenic substrate assays were performed using a Labsystems IEMS (Cergy Pontoise, France) microtiter plate reader. In each assay, the compound was tested at a minimum of seven concentrations in duplicate to obtain an inhibition curve. Assays were performed according to the following general procedure. In a 96-well microtiter plate, 25 μL of compound, inhibitor solution or buffer was added to 50 μL of substrate. A volume of 25 μL of enzyme solution was added just before the plate was placed in the microtiter plate reader for 1 h at 37 °C. The hydrolysis of the substrate yields p-nitroaniline, which was continuously monitored spectrophotometrically at 405 nm. Data were collected and the initial rate of substrate hydrolysis [Vo (mOD/minute)] was calculated. Following Michaelis-Menten kinetics, the affinity of the enzyme for the substrate, in the absence of the inhibitor (Km) and in the presence of an inhibitor (Kp), was determined to be the negative inverse x-intercept of Lineweaver–Burk plots. The dissociation constant for inhibition (Ki) was calculated using the following equation: Ki = (Km·[I])/(Kp − Km) as described by Williams and Morrison[40].

Urokinase = Urokinase (Homo sapiens, UniProt P00749); assay: Chromogenic substrate assay, Ki determination, Urokinase; assay type: biochemical
Method: as §1

FXa = target: T1, FXa (Homo sapiens, UniProt P00742); assay: Inhibition of amidolytic activity of FXa toward S-2222 (Michaelis-Menten, Lineweaver-Burk; with or without TFPI); assay type: biochemical; conditions: for slope of inhibition activity plot: FXa
T1 construct: purchased Haematologic Technologies (Essex Junction, VT, USA)
T1 sequence (P00742 235-488 limits assumed): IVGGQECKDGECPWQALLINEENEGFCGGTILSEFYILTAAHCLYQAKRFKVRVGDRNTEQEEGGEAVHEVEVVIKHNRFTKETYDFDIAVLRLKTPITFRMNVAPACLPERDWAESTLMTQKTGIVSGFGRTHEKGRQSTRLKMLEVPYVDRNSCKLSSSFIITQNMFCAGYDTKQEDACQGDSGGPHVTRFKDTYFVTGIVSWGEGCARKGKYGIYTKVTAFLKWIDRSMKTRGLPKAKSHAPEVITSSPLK
T1 sequence (P00742 41-179 limits assumed): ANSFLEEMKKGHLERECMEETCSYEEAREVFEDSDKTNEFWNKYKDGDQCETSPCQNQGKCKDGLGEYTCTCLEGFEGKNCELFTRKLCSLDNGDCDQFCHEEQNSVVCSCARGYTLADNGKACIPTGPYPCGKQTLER
Method: To elucidate the mechanisms responsible for inhibition of coagulation and platelet aggregation by compounds 1–4, inhibition of FXa activity was determined using chromogenic substrates. […] We observed a decrease in Vmax, with no effect on the Km of FXa toward S-2222 in the presence of compound 1. […] We also observed a slope of 0.401 for the control without compound 2, and slopes of 0.442 and 0.465 for compound 2 at concentrations of 2 and 5 µM, respectively. […] We observed a decrease in Vmax, with no effect on the Km of FXa toward S-2222 in the presence of compound 2. […] Inhibition activity plots were obtained for different concentrations of compound 3, showing a slope of 0.388 for the control without compound 3, and slopes of 0.408 and 0.464 for compound 3 at concentrations of 2 and 5 µM, respectively. […] We also observed a slope of 0.363 for the control without compound 4, and slopes of 0.376 and 0.398 for compound 4 at concentrations of 2 and 5 µM, respectively. […] We observed a decrease in Vmax, with no effect on the Km of FXa toward S-2222 in the presence of compound 4.
(§2) Figure 6 Effects of compounds 1–4 on inhibition and production of FXa. […] The plots represent means of three independent measurements. (E) Human umbilical vein endothelial cells (HUVECs) were pre-incubated with the indicated concentration of each compound for 10 min. HUVECs stimulated with tumor necrosis factor-α (TNF-α, 10 ng/mL for 6 h) were incubated with FVIIa (10 nM) and FX (175 nM) in the absence or presence of anti-TF IgG (25 µg/mL). FXa production was determined as described in the “ Supplementary Materials and Methods” section. D = 0.2% DMSO used as the vehicle control. (F) Inhibition of FXa by each compound (5 μM) with or without TFPI (2 nM) was monitored using a chromogenic assay. ^* p < 0.05 vs. TNF-α alone (E) or each compound (F) alone, analyzed via one-way ANOVA, followed by Tukey multiple comparison testing.
Each compound with or without TFPI was dissolved in 50 mM Tris-HCl buffer (pH 7.4) containing 7.5 mM EDTA and 150 mM NaCl. Following a 2-min incubation at 37 °C, FXa solution (150 μL, 1 U/mL) was added, followed by incubation at 37 °C for 1 min. S-2222 (an FXa substrate, 150 μL, 1.5 mM) solution was subsequently added, and the absorbance at 405 nm was monitored for 20 min using a spectrophotometer (TECAN, Männedorf, Switzerland). The absorbance-time curve and the slope of the curve (Vi) were used to represent the activity of the enzyme. Distilled water served as a control (the slope of curve V0). The inhibitory effect was calculated according to equation (1):1 Inhibitoryrate(%)=(V0−Vi)/V0×100 where V0 represents the slope of the vehicle and Vi represents the slope of the samples.

tPA = tPA (Homo sapiens, UniProt P00750); assay: Chromogenic substrate assay, Ki determination, tPA; assay type: biochemical
Chain of tPA (P00750 36-562): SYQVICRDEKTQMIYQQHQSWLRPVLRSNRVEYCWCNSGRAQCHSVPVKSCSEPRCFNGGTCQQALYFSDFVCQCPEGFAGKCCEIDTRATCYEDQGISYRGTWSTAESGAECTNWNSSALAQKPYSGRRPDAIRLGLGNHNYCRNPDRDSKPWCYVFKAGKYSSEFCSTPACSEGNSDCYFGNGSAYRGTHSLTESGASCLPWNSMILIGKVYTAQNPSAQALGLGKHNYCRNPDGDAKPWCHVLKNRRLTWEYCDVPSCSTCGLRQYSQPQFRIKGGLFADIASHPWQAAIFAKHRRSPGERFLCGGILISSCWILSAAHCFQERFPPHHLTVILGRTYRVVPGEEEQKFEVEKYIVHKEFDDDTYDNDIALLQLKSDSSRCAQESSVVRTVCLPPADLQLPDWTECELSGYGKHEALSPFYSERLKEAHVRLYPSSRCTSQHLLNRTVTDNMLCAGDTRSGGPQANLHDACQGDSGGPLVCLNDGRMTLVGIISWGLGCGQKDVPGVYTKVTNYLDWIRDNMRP
Method: as §1

Trypsin = assay: Chromogenic substrate assay, Ki determination, Trypsin; assay type: biochemical, human
Method: as §1

α-Thrombin = target: T2, α-Thrombin (Homo sapiens, UniProt P00734); assay: Chromogenic substrate assay, Ki determination, α-Thrombin; assay type: biochemical
T2 construct: FXa converts prothrombin to thrombin; purchased Haematologic Technologies (Essex Junction, VT, USA)
Method: as §1

HUVECs = assay: Production of factor Xa on the surface of TNF-α-stimulated HUVECs; assay type: cell-based, human; conditions: 10 min pre-incubation
Method: as §2
Production of FXa by FVIIa is dependent on tissue factor (TF) expression in tumor necrosis factor-α (TNF-α)-stimulated HUVECs[22]. Thus, we investigated the effects of compounds 1–4 on the production of FXa by FVIIa. HUVECs were stimulated with TNF-α to induce TF expression, causing an 11.9-fold increase in the rate of FX production by FVIIa (109.4 ± 9.2 nM) over that of non-stimulated HUVECs (9.2 ± 0.8 nM). […] We next determined whether each compound compete with tissue factor pathway inhibitor (TFPI) in the inhibition of FXa. […]

Chain of Streptokinase (Homo sapiens) (P00747 581-810 limits assumed): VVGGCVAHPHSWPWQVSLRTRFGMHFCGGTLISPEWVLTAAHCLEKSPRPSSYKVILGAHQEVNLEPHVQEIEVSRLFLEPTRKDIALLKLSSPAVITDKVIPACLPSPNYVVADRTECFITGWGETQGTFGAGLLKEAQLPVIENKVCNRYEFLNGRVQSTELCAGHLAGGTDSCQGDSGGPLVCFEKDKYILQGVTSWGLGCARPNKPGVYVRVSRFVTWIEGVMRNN

Compound: CC(=O)NCCc1ccc2c(c1)O[C@H](c1ccc(O)c(O)c1)[C@H](NC(C)=O)O2 [Compound 1, (2 R,3 R)-2-(3′,4′-dihydroxyphenyl)-3-acetylamino-7-(N-acetyl-2″-aminoethyl)-1,4-benzodioxane]
- Ratio = Ki enzyme/Ki Factor Xa, Streptokinase [1]: >100
- Ki ([1]; substrate S-2251): > 300 µM
- Ratio = Ki enzyme/Ki Factor Xa, Urokinase (Urokinase): >100
- Ki (Urokinase; substrate S-2444): > 300 µM
- Km of FXa toward S-2222 in the presence of compound (FXa): no effect
- Vmax of FXa toward S-2222 in the presence of compound (FXa): decrease
- type of inhibition of FXa (Lineweaver-Burk plots) (FXa; S-2222): noncompetitive inhibition
- slope of inhibition activity plot (FXa; compound at 2 µM, S-2222): 0.707
- slope of inhibition activity plot (FXa; compound at 5 µM, S-2222): 0.957
- Ki (FXa; substrate S-2222): 2.96 µM
- Ratio = Ki enzyme/Ki Factor Xa, tPA (tPA): >100
- Ki (tPA; substrate S-2228): > 300 µM
- Ratio = Ki enzyme/Ki Factor Xa, Trypsin (Trypsin): >100
- Ki (Trypsin; substrate S-2222): > 300 µM
- Ratio = Ki enzyme/Ki Factor Xa, α-Thrombin (α-Thrombin): >100
- Ki (α-Thrombin; substrate S-2238): > 300 µM
- inhibition of FXa production (generation) by FVIIa in HUVECs (HUVECs): strongest inhibition

Reference: paper PMC5554137, “Evaluation of novel factor Xa inhibitors from Oxya chinensis sinuosa with anti-platelet aggregation activity” (Scientific Reports, 2017)
